Experiments:
[1] = Antioxidative activity: DPPH radical scavenging activity according to the Blois method; assay type: biochemical; conditions: 10 min reaction, absorbance at 517 nm
Procedure: (§1) The antioxidative activity of the novel compound obtained through the extraction and purification process is evaluated by measuring its radical scavenging activity against 1,1-diphenyl-2-picrylhydrazyl (DPPH), which has free radicals attached thereto, according to the Blois method. A thermal stability of the compound of interest can be evaluated by measuring its antioxidative activity at plural temperature points.
(§2) Dicaval C obtained in Example 3 was measured for antioxidative activity according to the Blois method. For this, an examination was made of the radical scavenging activity of the compound against 1,1-diphenyl-2-picrylhydrazyl (DPPH) to which free radicals were attached. First, 20 mg of DPPH was dissolved in 150 ml of ethanol to prepare a DPPH solution. To 600 μl of the DPPH solution was added 250 μl of dimethylsulfoxide (DMSO), diluted with an appropriate amount of ethanol and shaken for 10 seconds, after which this control was adjusted, in absorbance at 517 nm, from 0.94 to 0.97. To 1 ml of the DPPH solution which was adjusted from 0.94 to 0.97 likewise, each of the samples (μg to mg) was added and then, reacted for 10 min, followed by measuring the absorbance of the solution. The antioxidative activity of each of the samples was determined by the DPPH radical scavenging activity which was represented by a reduced absorbance compared with that of the control.

[2] = Thermal stability: antioxidative activity (DPPH) after heating for 1 hour; assay type: physicochemical
Procedure: as §1, §2
50 μg of Dicaval C obtained in Example 3 was heated at 40° C., 60° C., 80° C., and 100° C. for 1 hour to measure antioxidative activity.

[3] = 50 μg heated at 40 °C for 1 hour
[4] = 50 μg heated at 60 °C for 1 hour
[5] = 50 μg heated at 80 °C for 1 hour
[6] = 50 μg heated at 190 °C [sic] for 1 hour

Antioxidativity (Absorb. change) [2, 3]	Notes (thermal stability) [2, 3]	Antioxidativity (Absorb. change) [2, 4]	Notes (thermal stability) [2, 4]	Antioxidativity (Absorb. change) [2, 5]	Notes (thermal stability) [2, 5]	Antioxidativity (Absorb. change) [2, 6]	Notes (thermal stability) [2, 6]	SMILES	DPPH radical scavenging activity (antioxidative activity) ([1]; sample amount 10 μg) [%]	DPPH radical scavenging activity (antioxidative activity) ([1]; sample amount 20 μg) [%]	DPPH radical scavenging activity (antioxidative activity) ([1]; sample amount 100 μg) [%]
–	–	–	–	–	–	–	–	O=C1O[C@H]([C@@H](O)CO)C(O)=C1O [Ascorbic acid, reference compound]	100	100	100
0.87	Stable	0.86	Stable	0.89	Stable	0.88	Stable	Oc1cc(O)cc(Oc2cc(O)c(O)c3c2Oc2c(O)cc(O)cc2O3)c1 [Dicaval C]	82	100	100
